Experimental data: patent US7851510B2, “Gossypol derivatives, production method thereof and uses of same” (Centre National de la Recherche Scientifique (C.N.R.S.), priority 2004, dated 2010)

tested on: KB tumour cell line; assay: Cytotoxicity vis-à-vis the KB tumour cell line; format: cell-based; conditions: Homo sapiens
Experimental: The cytotoxicity of the compound vis-à-vis the KB tumour cell line was measured as is described in Dao et al. (2003) Bioorg. Med. Chem. 11:2001-2006.

Structure (SMILES) | IC50
COc1ccc(SCc2c(O)c(O)c(C(C)C)c3c2C(=O)C(C2=C(C)C(=O)c4c(c(CSc5ccc(OC)cc5)c(O)c(O)c4C(C)C)C2=O)=C(C)C3=O)cc1 [(9), 6,7,6′,7′-tetrahydroxy-5,5′-diisopropyl-8,8′-bis-(4-methoxy-phenylsulphanylmethyl)-3,3′-dimethyl-[2,2′]binaphthalenyl-1,4,1′,4′-tetraone] | 6.5 µM
CC1=C(C2=C(C)C(=O)c3c(c(CSc4ccc(Cl)cc4)c(O)c(O)c3C(C)C)C2=O)C(=O)c2c(CSc3ccc(Cl)cc3)c(O)c(O)c(C(C)C)c2C1=O [(10), 6,7,6′,7′-tetrahydroxy-5,5′-diisopropyl-8,8′-bis-(4-chloro-phenylsulphanylmethyl)-3,3′-dimethyl-[2,2′]binaphthalenyl-1,4,1′,4′-tetraone] | 3 µM
CC1=C(C2=C(C)C(=O)c3c(c(CSc4ccc(C)cc4)c(O)c(O)c3C(C)C)C2=O)C(=O)c2c(CSc3ccc(C)cc3)c(O)c(O)c(C(C)C)c2C1=O [(8), 6,7,6′,7′-tetrahydroxy-5,5′-diisopropyl-3,3′-dimethyl-8,8′-bis-p-tolylsulphanylmethyl-[2,2′]binaphthalenyl-1,4,1′,4′-tetraone] | 6.5 µM
CC1=C(C2=C(C)C(=O)c3c(c(CSc4ccccc4)c(O)c(O)c3C(C)C)C2=O)C(=O)c2c(CSc3ccccc3)c(O)c(O)c(C(C)C)c2C1=O [(7), 6,7,6′,7′-tetrahydroxy-5,5′-diisopropyl-3,3′-dimethyl-8,8′-bis-phenylsulphanylmethyl-[2,2′]binaphthalenyl-1,4,1′,4′-tetraone] | 4 µM
CC1=C(C2=C(C)C(=O)c3c(c(CSc4c(F)c(F)cc(F)c4F)c(O)c(O)c3C(C)C)C2=O)C(=O)c2c(CSc3c(F)c(F)cc(F)c3F)c(O)c(O)c(C(C)C)c2C1=O [(11), 6,7,6′,7′-tetrahydroxy-5,5′-diisopropyl-8,8′-bis-(2,3,5,6-tetrafluoro-phenylsulphanylmethyl)-3,3′-dimethyl-[2,2′]binaphthalenyl-1,4,1′,4′-tetraone] | 8.5 µM
CC1=C(C2=C(C)C(=O)c3c(c(CO)c(O)c(O)c3C(C)C)C2=O)C(=O)c2c(CO)c(O)c(O)c(C(C)C)c2C1=O [(5), 6,7,6′,7′-tetrahydroxy-8,8′-bis-hydroxymethyl-5,5′-diisopropyl-3,3′-dimethyl-[2,2′]binaphthalenyl-1,4,1′,4′-tetraone] | 1 µM
